Experimental data from patent US12215106B2, “Pharmaceutical compounds and therapeutic methods” (RUTGERS, THE STATE UNIVERSITY OF NEW JERSEY, priority 2018, dated 2025).
Where a name gives a salt, the structure may show the parent alone. Read-outs that look alike come from different tables or passages of the source.

Test: Plasma pharmacokinetics and brain distribution after single IV, IP and oral administration
Assay type: in vivo
Protocol: (§1) The objective of this study was to investigate the plasma pharmacokinetics and brain distribution of Compound (14 in male C57BL/6 mice following a single intravenous, intraperitoneal and oral administration. A group of sixty-three male mice were divided into three groups (Group 1: 2 mg/kg/IV; Group 2: 10 mg/kg/IP and Group 3: 10 mg/kg/PO) with each group comprising of twenty-one mice.
Animals in Group 1 were administered intravenously with Compound 15 solution formulation in 5% NMP, 5% Solutol HS-15, 30% PEG-400 and 60% Captisol (20% w/v) at 2 mg/kg dose. […] Considering mortality intravenous dose was reduced to 2 mg/kg.
Animals in Group 2 and 3 were administered with Compound 15 solution formulation in 5% NMP, 5% Solutol HS-15, 30% PEG-400 and 60% Captisol (20% w/v) at a dose of 10 mg/kg by intraperitoneal and oral route respectively.
(§2) Blood samples (approximately 60 μL) were collected under light isoflurane anesthesia from retro orbital plexus from a set of three mice at 0.08, 0.35, 1, 3, 6, 12 and 24 hr. Plasma samples were separated by centrifugation of whole blood and stored below −70±10° C. until bioanalysis. Immediately after collection of blood, brain samples were collected from set of three mice at each time point. Brain samples were homogenized using ice-cold phosphate buffer saline (pH-7.4) in a ratio of 2 (buffer):1(brain); and homogenates were stored below −70±10° C. until analysis. Total homogenate volume was three times the brain weight. All samples were processed for analysis by protein precipitation using acetonitrile and analyzed with fit-for-purpose LC/MS/MS method (LLOQ2.00 ng/mL for plasma and 3.00 ng/g for brain). Pharmacokinetic parameters were calculated using the non-compartmental analysis tool of Phoenix WinNonlin® (Version 7.0). Pharmacokinetic parameters of Compound 15 are summarized below.
as §1, with “Compound 16” for “Compound (14”, “1: 10” for “1: 2”
Animals in Group 1 were administered intravenously with Compound 16 solution formulation in 5% NMP, 5% Solutol HS-15 and 90% normal saline at 10 mg/kg dose.
Animals in Group 2 and 3 were administered with Compound 16 solution formulation in 5% NMP, 5% Solutol HS-15 and 90% normal saline at a dose of 10 mg/kg by intraperitoneal and oral route respectively.
as §2, with “(LLOQ—1.00” for “(LLOQ2.00”, “16” for “15”
as §1, with “17” for “(14”, “mice. […]” for “mice.”

[1] = male, C57BL/6, mouse, brain, ip, 10 mg/kg, IP 10 mg/kg, read-out: Brain-to-plasma ratio
[2] = male, C57BL/6, mouse, brain, po, 10 mg/kg, PO 10 mg/kg, read-out: Brain-to-plasma ratio
[3] = male, C57BL/6, mouse, in vivo, ip, 10 mg/kg
[4] = male, C57BL/6, mouse, in vivo, ip, 10 mg/kg, 12 h
[5] = male, C57BL/6, mouse, in vivo, ip, 10 mg/kg, 24 h
[6] = male, C57BL/6, mouse, in vivo, ip, 10 mg/kg, Brain concentration, individual animal
[7] = male, C57BL/6, mouse, in vivo, ip, 10 mg/kg, Mean brain conc.
[8] = male, C57BL/6, mouse, in vivo, ip, 10 mg/kg, Mean plasma conc.
[9] = male, C57BL/6, mouse, in vivo, ip, 10 mg/kg, Plasma concentration, individual animal
[10] = male, C57BL/6, mouse, in vivo, iv, 2 mg/kg
[11] = male, C57BL/6, mouse, in vivo, iv, 2 mg/kg, 6 h
[12] = male, C57BL/6, mouse, in vivo, iv, 2 mg/kg, 12 h
[13] = male, C57BL/6, mouse, in vivo, iv, 2 mg/kg, 24 h
[14] = male, C57BL/6, mouse, in vivo, iv, 2 mg/kg, Brain concentration, individual animal
[15] = male, C57BL/6, mouse, in vivo, iv, 2 mg/kg, Mean brain conc.
[16] = male, C57BL/6, mouse, in vivo, iv, 2 mg/kg, Mean plasma conc.
[17] = male, C57BL/6, mouse, in vivo, iv, 2 mg/kg, Plasma concentration, individual animal
[18] = male, C57BL/6, mouse, in vivo, po, 10 mg/kg
[19] = male, C57BL/6, mouse, in vivo, po, 10 mg/kg, 24 h
[20] = male, C57BL/6, mouse, in vivo, po, 10 mg/kg, Brain concentration, individual animal
[21] = male, C57BL/6, mouse, in vivo, po, 10 mg/kg, Mean brain conc.
[22] = male, C57BL/6, mouse, in vivo, po, 10 mg/kg, Mean plasma conc.
[23] = male, C57BL/6, mouse, in vivo, po, 10 mg/kg, Plasma concentration, individual animal
[24] = male, C57BL/6, mouse, in vivo, IV 2 mg/kg, read-out: Brain-to-plasma ratio

[2H]C([2H])([2H])Oc1ccc(Nc2nc(-c3c(C)nc4ccccn34)cs2)cc1 [Compound 15, N-(4-(methoxy-d3)phenyl)-4-(2-methylimidazo[1,2-c]pyridin-3-yl)thiazol-2-amine hydrochloride]
Kp at 0.08 h [1]: 0.19 | Kp at 0.35 h [1]: 0.63 | Kp at 1 h [1]: 0.75 | Kp at 3 h [1]: 0.36 | Kp at 6 h [1]: 0.38 | Kp (male, C57BL/6, mouse, brain, ip, 10 mg/kg, IP 10 mg/kg, read-out: brain-to-plasma ratio, range over time): 0.19 to 0.75 | Kp (male, C57BL/6, mouse, brain, iv, 2 mg/kg, IV 2 mg/kg, read-out: brain-to-plasma ratio, range over time): 1.17 to 1.64 | Kp at 0.08 h [2]: 0.1 | Kp at 0.35 h [2]: 0.41 | Kp at 1 h [2]: 1.03 | Kp at 3 h [2]: 0.7 | Kp at 6 h [2]: 0.6 | Kp at 12 h (male, C57BL/6, mouse, brain, po, 10 mg/kg, PO 10 mg/kg, 12 hr, read-out: Brain-to-plasma ratio): 0.62 | Kp (male, C57BL/6, mouse, brain, po, 10 mg/kg, PO 10 mg/kg, read-out: brain-to-plasma ratio, range over time): 0.1 to 1.03 | Kp (male, C57BL/6, mouse, brain, po, 10 mg/kg, summary data, read-out: Brain to plasma ratio following a single oral dose): 1.03 | Brain concentrations quantifiable up to [3]: up to 6 hr | Plasma concentrations quantifiable up to [3]: up to 6 hr | Brain concentration, individual animal [4]: 0.00 ng/g | Plasma concentration, individual animal [4]: 0.00 ng/mL | Brain concentration, individual animal [5]: 0.00 ng/g | Plasma concentration, individual animal [5]: 0.00 ng/mL | concentration at 0.08 h [6]: 38.4 ng/g | concentration at 0.35 h [6]: 287 ng/g | concentration at 1 h [6]: 383 ng/g | concentration at 3 h [6]: 48.4 ng/g | concentration at 12 h [6]: 0 ng/g | concentration at 24 h [6]: 0 ng/g | concentration at 0.08 h [7]: 43.6 ng/g | concentration at 0.35 h [7]: 266 ng/g | concentration at 1 h [7]: 305 ng/g | concentration at 3 h [7]: 57.7 ng/g | concentration at 6 h [7]: 6.06 ng/g | concentration at 12 h [7]: 0 ng/g | concentration at 24 h [7]: 0 ng/g | concentration at 0.08 h [8]: 229 ng/mL | concentration at 0.35 h [8]: 422 ng/mL | concentration at 1 h [8]: 409 ng/mL | concentration at 3 h [8]: 160 ng/mL | concentration at 6 h [8]: 16.1 ng/mL | concentration at 12 h [8]: 0 ng/mL | concentration at 24 h [8]: 0 ng/mL | concentration at 0.08 h [9]: 228 ng/mL | concentration at 0.35 h [9]: 467 ng/mL | concentration at 1 h [9]: 563 ng/mL | concentration at 3 h [9]: 174 ng/mL | concentration at 12 h [9]: 0 ng/mL | concentration at 24 h [9]: 0 ng/mL | Brain concentrations quantifiable up to [10]: up to 3 hr | Vss, fold more than normal volume of total body water (0.7 L/kg) [10]: 11 fold | Brain concentration, individual animal [11]: 0.00 ng/g | Plasma concentration, individual animal [11]: 0.00 ng/mL | Brain concentration, individual animal [12]: 0.00 ng/g | Plasma concentration, individual animal [12]: 0.00 ng/mL | Brain concentration, individual animal [13]: 0.00 ng/g | Plasma concentration, individual animal [13]: 0.00 ng/mL | concentration at 0.08 h [14]: 392 ng/g | concentration at 0.35 h [14]: 270 ng/g | concentration at 1 h [14]: 67.2 ng/g | concentration at 6 h [14]: 0 ng/g | concentration at 12 h [14]: 0 ng/g | concentration at 24 h [14]: 0 ng/g | concentration at 0.08 h [15]: 366 ng/g | concentration at 0.35 h [15]: 231 ng/g | concentration at 1 h [15]: 80 ng/g | concentration at 3 h [15]: 27.2 ng/g | concentration at 6 h [15]: 0 ng/g | concentration at 12 h [15]: 0 ng/g | concentration at 24 h [15]: 0 ng/g | concentration at 0.08 h [16]: 313 ng/mL | concentration at 0.35 h [16]: 149 ng/mL | concentration at 1 h [16]: 61.9 ng/mL | concentration at 3 h [16]: 16.6 ng/mL | concentration at 6 h [16]: 0 ng/mL | concentration at 12 h [16]: 0 ng/mL | concentration at 24 h [16]: 0 ng/mL | concentration at 0.08 h [17]: 298 ng/mL | concentration at 0.35 h [17]: 139 ng/mL | concentration at 6 h [17]: 0 ng/mL | concentration at 12 h [17]: 0 ng/mL | concentration at 24 h [17]: 0 ng/mL | Brain concentrations quantifiable up to [18]: up to 12 hr | Plasma concentrations quantifiable up to [18]: up to 12 hr | Brain concentration, individual animal [19]: 0.00 ng/g | Plasma concentration, individual animal [19]: 0.00 ng/mL | concentration at 0.08 h [20]: 8.31 ng/g | concentration at 1 h [20]: 190 ng/g | concentration at 24 h [20]: 0 ng/g | concentration at 0.08 h [21]: 7.99 ng/g | concentration at 0.35 h [21]: 108 ng/g | concentration at 1 h [21]: 253 ng/g | concentration at 3 h [21]: 66 ng/g | concentration at 6 h [21]: 6.63 ng/g | concentration at 12 h [21]: 3.63 ng/g | concentration at 24 h [21]: 0 ng/g | concentration at 0.08 h [22]: 78.2 ng/mL | concentration at 0.35 h [22]: 261 ng/mL | concentration at 1 h [22]: 245 ng/mL | concentration at 3 h [22]: 93.7 ng/mL | concentration at 6 h [22]: 11.1 ng/mL | concentration at 12 h [22]: 5.82 ng/mL | concentration at 24 h [22]: 0 ng/mL | concentration at 0.35 h [23]: 251 ng/mL | concentration at 12 h [23]: 8.42 ng/mL | concentration at 24 h [23]: 0 ng/mL | Kp at 0.08 h [24]: 1.17 | Kp at 0.35 h [24]: 1.55 | Kp at 1 h [24]: 1.29 | Kp at 3 h [24]: 1.64 | bioavailability (male, C57BL/6, mouse, plasma, po, 10 mg/kg, PO 10 mg/kg, AUClast considered, read-out: Oral bioavailability, % F): 64% | bioavailability (male, C57BL/6, mouse, plasma, po, 10 mg/kg, summary data, read-out: Oral bioavailability): 64% | Tmax (male, C57BL/6, mouse, plasma, IP 10 mg/kg): 21 min | clearance (male, C57BL/6, mouse, plasma, IV 2 mg/kg, read-out: CL, plasma clearance): 130 mL/min/kg | half-life (male, C57BL/6, mouse, plasma, IV 2 mg/kg, read-out: T1/2, terminal elimination half-life (converted)): 52.8 min | Tmax (male, C57BL/6, mouse, plasma, PO 10 mg/kg): 21 min | mortality immediately after dose administration (mouse, in vivo, iv, 10 mg/kg): mortality was observed in four animals
